Patent US10450270B2, “Glyoxamide substituted pyrrolamide derivatives and the use thereof as medicaments for the treatment of hepatitis B” (Janssen Sciences Ireland UC, priority 2013, dated 2019)
pEC50: −log10 of the molar value.

How the values were obtained:
[1] = Cytotoxicity in HepG2 cells, Resazurin viability assay; settings: human, HepG2 cells
HBV = test: Anti-HBV activity, HepG2.117 inducible HBV producing cell line (Tet-off), intracellular HBV DNA by realtime PCR; assay type: cell-based; settings: Hepatitis B virus, 72 h; HepG2.117 cells, 3 days of treatment, intracellular HBV DNA; read-out: HepG2 117 EC50

Compound | CC50 at 4 days [1] [µM] | pEC50 (HBV)
Cc1c(C(=O)C(=O)NC2(C)CC(F)(F)C2)c(F)c(C(=O)Nc2ccc(F)c(C#N)c2)n1C [Compound 37, N-(3-cyano-4-fluoro-phenyl)-4-[2-[(3,3-difluoro-1-methyl-cyclobutyl)-amino]-2-oxo-acetyl]-3-fluoro-1,5-dimethyl-pyrrole-2-carboxamide] | > 25 | 8.70
Cc1c(C(=O)C(=O)NC(C)C)cc(C(=O)Nc2ccc(F)c(C#N)c2)n1C [Compound 52, N-(3-cyano-4-fluoro-phenyl)-4-[2-(isopropylamino)-2-oxo-acetyl]-1,5-dimethyl-pyrrole-2-carboxamide] | > 25 | 7.17
Cc1c(C(=O)C(=O)N[C@H]2CCN(C)C[C@H]2O)cc(C(=O)Nc2ccc(F)c(C#N)c2)n1C [Compound 62, N-(3-cyano-4-fluoro-phenyl)-4-[2-[[(3R,4S)-3-hydroxy-1-methyl-4-piperidyl]amino]-2-oxo-acetyl]-1,5-dimethyl-pyrrole-2-carboxamide] | > 25 | 6.64
C[C@@H](NC(=O)C(=O)c1cn(C)c(C(=O)Nc2ccc(F)c(C#N)c2)c1F)C(C)(F)F [Compound 93, N-(3-cyano-4-fluoro-phenyl)-4-[2-[[(1R)-2,2-difluoro-1-methylpropyl]-amino]-2-oxo-acetyl]-3-fluoro-1-methyl-pyrrole-2-carboxamide] | > 25 | 7.82
C[C@@H](NC(=O)C(=O)c1cc(C(=O)Nc2ccc(F)c(C#N)c2)n(C)c1C1CC1)C(F)(F)F [Compound 61, N-(3-cyano-4-fluoro-phenyl)-5-cyclopropyl-1-methyl-4-[2-oxo-2-[[(1R)-2,2,2-trifluoro-1-methyl-ethyl]amino]acetyl]pyrrole-2-carboxamide] | > 25 | 6.92
Cc1c(C(=O)C(=O)NC(CCO)C2CC2)cc(C(=O)Nc2ccc(F)c(C#N)c2)n1C (centres unmarked) [Compound 74, N-(3-cyano-4-fluoro-phenyl)-4-[2-[(1-cyclopropyl-3-hydroxy-propyl)-amino]-2-oxo-acetyl]-1,5-dimethyl-pyrrole-2-carboxamide] | > 25 | 7.82
Cc1c(C(=O)C(=O)NC2(C(F)(F)F)CCOC2)c(Cl)c(C(=O)Nc2ccc(F)c(C#N)c2)n1C (racemic) [Compound 41, 3-chloro-N-(3-cyano-4-fluoro-phenyl)-1,5-dimethyl-4-[2-oxo-2-[[3-(tri-fluoromethyl)tetrahydrofuran-3-yl]amino]acetyl]pyrrole-2-carboxamide] | > 25 | 8.52
C[C@@H](NC(=O)C(=O)c1c(Cl)c(C(=O)Nc2ccc(F)c(C#N)c2)n(C)c1Cl)C(F)(F)F [Compound 86, 3,5-dichloro-N-(3-cyano-4-fluoro-phenyl)-1-methyl-4-[2-oxo-2-[[(1R)-2,2,2-trifluoro-1-methyl-ethyl]amino]acetyl]pyrrole-2-carboxamide] | > 25 | 8.22
Cc1c(C(=O)C(=O)NC2(C)CC(F)(F)C2)cc(C(=O)Nc2ccc(F)c(C#N)c2)n1C [Compound 56, N-(3-cyano-4-fluoro-phenyl)-4-[2-[(3,3-difluoro-1-methyl-cyclobutyl)-amino]-2-oxo-acetyl]-1,5-dimethyl-pyrrole-2-carboxamide] | > 25 | 8.30
C[C@H](NC(=O)C(=O)c1cc(C(=O)Nc2ccc(F)c(C#N)c2)n(C)c1)C(F)(F)F [Compound 51, N-(3-cyano-4-fluoro-phenyl)-1-methyl-4-[2-oxo-2-[[(1S)-2,2,2-trifluoro-1-methyl-ethyl]amino]acetyl]pyrrole-2-carboxamide] | > 25 | 7.38
Cc1c(C(=O)C(=O)N[C@@H](C)C(C)(F)F)cc(C(=O)Nc2ccc(F)c(C#N)c2)n1C [Compound 55, N-(3-cyano-4-fluoro-phenyl)-4-[2-[[(1S)-2,2-difluoro-1-methyl-propyl]-amino]-2-oxo-acetyl]-1,5-dimethyl-pyrrole-2-carboxamide] | > 25 | 8.05
COCC(C)(CCO)NC(=O)C(=O)c1cc(C(=O)Nc2ccc(F)c(C#N)c2)n(C)c1C (centres unmarked) [Compound 70, N-(3-cyano-4-fluoro-phenyl)-4-[2-[[3-hydroxy-1-(methoxymethyl)-1-methyl-propyl]amino]-2-oxo-acetyl]-1,5-dimethyl-pyrrole-2-carboxamide] | > 25 | 7.60
CC[C@@H](NC(=O)C(=O)c1cn(C)c(C(=O)Nc2ccc(F)c(C#N)c2)c1Cl)C(F)(F)F [Compound 38, 3-chloro-N-(3-cyano-4-fluoro-phenyl)-1-methyl-4-[2-oxo-2-[[(1R)-1-(trifluoromethyl)propyl]amino]acetyl]pyrrole-2-carboxamide] | > 25 | 7.82
CCCC[C@@H](CO)NC(=O)C(=O)c1cc(C(=O)Nc2ccc(F)c(C#N)c2)n(C)c1C [Compound 63, N-(3-cyano-4-fluoro-phenyl)-4-[2-[[(1S)-1-(hydroxymethyl)pentyl]amino]-2-oxo-acetyl]-1,5-dimethyl-pyrrole-2-carboxamide] | > 25 | 6.68
C[C@@H](NC(=O)C(=O)c1cn(C)c(C(=O)Nc2ccc(F)c(C#N)c2)c1F)C(F)(F)F [Compound 85, N-(3-cyano-4-fluoro-phenyl)-3-fluoro-1-methyl-4-[2-oxo-2-[[(1R)-2,2,2-trifluoro-1-methyl-ethyl]amino]acetyl]pyrrole-2-carboxamide] | > 25 | 7.85
C[C@@H](NC(=O)C(=O)c1c(Br)c(C(=O)Nc2ccc(F)c(C#N)c2)n(C)c1Br)C(F)(F)F [Compound 27, 3,5-dibromo-N-(3-cyano-4-fluoro-phenyl)-1-methyl-4-[2-oxo-2-[[(1R)-2,2,2-trifluoro-1-methyl-ethyl]amino]acetyl]pyrrole-2-carboxamide] | > 25 | 8.30
CC[C@@H](NC(=O)C(=O)c1c(Cl)c(C(=O)Nc2ccc(F)c(C#N)c2)n(C)c1C)C(F)(F)F [Compound 42, 3-chloro-N-(3-cyano-4-fluoro-phenyl)-1,5-dimethyl-4-[2-oxo-2-[[(1R)-1-(trifluoromethyl)propyl]amino]acetyl]pyrrole-2-carboxamide] | > 25 | 8.70
Cc1c(C(=O)C(=O)NC2(C)COC2)cc(C(=O)Nc2ccc(F)c(C#N)c2)n1C [Compound 60, N-(3-cyano-4-fluoro-phenyl)-1,5-dimethyl-4-[2-[(3-methyloxetan-3-yl)-amino]-2-oxo-acetyl]pyrrole-2-carboxamide] | > 25 | 7.96
Cc1c(C(=O)C(=O)NC2(CO)CC2)cc(C(=O)Nc2ccc(F)c(C#N)c2)n1C [Compound 73, N-(3-cyano-4-fluoro-phenyl)-4-[2-[[1-(hydroxymethyl)cyclopropyl]amino]-2-oxo-acetyl]-1,5-dimethyl-pyrrole-2-carboxamide] | > 25 | 7.77
Cc1c(C(=O)C(=O)NC2(C(F)(F)F)CCC(O)CC2)cc(C(=O)Nc2ccc(F)c(C#N)c2)n1C (centres unmarked) [Compound 82, N-(3-cyano-4-fluoro-phenyl)-4-[2-[[4-hydroxy-1-(trifluoromethyl)cyclo-hexyl]amino]-2-oxo-acetyl]-1,5-dimethyl-pyrrole-2-carboxamide] | > 25 | 8.52
COCC(C)(C)NC(=O)C(=O)c1cn(C)c(C(=O)Nc2ccc(F)c(C#N)c2)c1F [Compound 96, N-(3-cyano-4-fluoro-phenyl)-3-fluoro-4-[2-[(2-methoxy-1,1-dimethyl-ethyl)amino]-2-oxo-acetyl]-1-methyl-pyrrole-2-carboxamide] | > 25 | 8.22
Cn1cc(C(=O)C(=O)NC2(C(F)(F)F)CCC2)c(F)c1C(=O)Nc1ccc(F)c(C#N)c1 [Compound 84, N-(3-cyano-4-fluoro-phenyl)-3-fluoro-1-methyl-4-[2-oxo-2-[[1-(trifluoro-methyl)cyclobutyl]amino]acetyl]pyrrole-2-carboxamide] | 21.9 | 8.52
Cn1c(C#N)c(C(=O)C(=O)NC(C)(C)C)c(Cl)c1C(=O)Nc1ccc(F)c(C#N)c1 [Compound 49, 4-[2-(tert-butylamino)-2-oxo-acetyl]-3-chloro-5-cyano-N-(3-cyano-4-fluoro-phenyl)-1-methyl-pyrrole-2-carboxamide] | > 25 | 7.47
Cn1c(Cl)c(C(=O)C(=O)NC2(C(F)(F)F)CCOC2)c(F)c1C(=O)Nc1ccc(F)c(C#N)c1 (centres unmarked) [Compound 89, 5-chloro-N-(3-cyano-4-fluoro-phenyl)-3-fluoro-1-methyl-4-[2-oxo-2-[[3-(trifluoromethyl)tetrahydrofuran-3-yl]amino]acetyl]pyrrole-2-carboxamide] | > 25 | 8.10
CCC(C)(CO)NC(=O)C(=O)c1cc(C(=O)Nc2ccc(F)c(C#N)c2)n(C)c1C (centres unmarked) [Compound 76, N-(3-cyano-4-fluoro-phenyl)-4-[2-[[1-(hydroxymethyl)-1-methyl-propyl]-amino]-2-oxo-acetyl]-1,5-dimethyl-pyrrole-2-carboxamide] | > 25 | 7.89
Cc1c(C(=O)C(=O)NC(C)(C)CO)cc(C(=O)Nc2ccc(F)c(C#N)c2)n1C [Compound 94, N-(3-cyano-4-fluoro-phenyl)-4-[2-[(2-hydroxy-1,1-dimethyl-ethyl)amino]-2-oxo-acetyl]-1,5-dimethyl-pyrrole-2-carboxamide] | > 25 | 8.40
Cc1c(C(=O)C(=O)N[C@H]2CCCC[C@@H]2O)cc(C(=O)Nc2ccc(F)c(C#N)c2)n1C [Compound 67, N-(3-cyano-4-fluoro-phenyl)-4-[2-[[(1S,2S)-2-hydroxycyclohexyl]amino]-2-oxo-acetyl]-1,5-dimethyl-pyrrole-2-carboxamide] | > 25 | 7.03
C[C@@H](NC(=O)C(=O)c1cn(C)c(C(=O)Nc2ccc(F)c(C#N)c2)c1Br)C(F)(F)F [Compound 26, 3-bromo-N-(3-cyano-4-fluoro-phenyl)-1-methyl-4-[2-oxo-2-[[(1R)-2,2,2-trifluoro-1-methyl-ethyl]amino]acetyl]pyrrole-2-carboxamide] | > 25 | 7.15
